Source: patent US20250136618A1, “ANTIBIOTIC PYRAZINOTHIAZINE DERIVATIVES AND PROCESS OF PREPARATION THEREOF” (Bugworks Research India PVT Ltd, priority 2021, published 2025)
In brackets after ≈: the same amount, converted by molar mass.

Experiments:
Assay type in all cases: cell-based
[1] = test system: Klebsiella aerogenes, K. oxytoca; assay: MIC90 determination, clinical strains (CLSI); details: for MIC90: N=17, read-out: MIC 90 Klebsiella aerogenes, K. oxytoca
[2] = test system: Klebsiella pneumoniae; assay: MIC90 determination, clinical strains (CLSI); details: for MIC90: Klebsiella pneumoniae, N=86, read-out: MIC 90 Klebsiella pneumoniae
[3] = test system: Proteus mirabilis; assay: MIC90 determination, clinical strains (CLSI); details: for MIC90: Proteus mirabilis, N=12, read-out: MIC 90 Proteus mirabilis
[4] = test system: Providencia rettgeri, P. stuartii; assay: MIC90 determination, clinical strains (CLSI); details: for MIC90: N=12, read-out: MIC 90 Providencia rettgeri, P. stuartii
[5] = test system: Acinetobacter baumannii; assay: MIC90 determination, clinical strains (CLSI); details: for MIC90: Acinetobacter baumannii, N=38, read-out: MIC 90 Acinetobacter baumannii
[6] = test system: Enterobacter cloacae; assay: MIC90 determination, clinical strains (CLSI); details: for MIC90: Enterobacter cloacae, N=26, read-out: MIC 90 Enterobacter cloacae
[7] = test system: Pseudomonas aeruginosa; assay: MIC90 determination, clinical strains (CLSI); details: for MIC90: Pseudomonas aeruginosa, N=34, read-out: MIC 90 Pseudomonas aeruginosa
[8] = test system: Morganella morganii; assay: MIC90 determination, clinical strains (CLSI); details: for MIC90: Morganella morganii, N=11, read-out: MIC 90 Morganella morganii
[9] = test system: Serratia marcescens; assay: MIC90 determination, clinical strains (CLSI); details: for MIC90: Serratia marcescens, N=15, read-out: MIC 90 Serratia marcescens
[10] = test system: CHO-K1 cells; assay: In-vitro micronucleus assay; details: for % (in-vitro micronucleus assay) / In vitro micronucleus forming concentration: Chinese hamster
Description: Genetic toxicology studies were performed on the compounds of the present disclosure to assess their ability to cause DNA damage. The in-vitro micronucleus assay measured the concentration (μM) of the compound at which micronuclei formation occurred. A micronuclei formation at lower concentration indicates more genetic damage or genotoxicity.
Micronucleus formation is a hallmark of genotoxicity, and the micronucleus assay is an important component of genotoxicity screening. Micronuclei are chromatin-containing bodies that represent fragments or even whole chromosomes that were not incorporated into a daughter cell nucleus at mitosis. The purpose of the assay is to detect agents that induce chromosome damage leading to the induction of micronuclei in interphase cells. The in vitro micronucleus assay was conducted in CHO-K1 cells according to the procedure described by Diaz, D et al [Mutat Res. 630(1-2):1-13. […] The formation of the micronucleus is identified by image-based high content analysis from binucleated cells.

[11] = target: hERG potassium channel (Homo sapiens (Human), UniProt Q12809); assay: hERG inhibition assay (Qpatch HTX automated electrophysiology); details: CHO cell line expressing hERG, whole-cell patch clamp
hERG potassium channel, sequence (Q12809 whole entry): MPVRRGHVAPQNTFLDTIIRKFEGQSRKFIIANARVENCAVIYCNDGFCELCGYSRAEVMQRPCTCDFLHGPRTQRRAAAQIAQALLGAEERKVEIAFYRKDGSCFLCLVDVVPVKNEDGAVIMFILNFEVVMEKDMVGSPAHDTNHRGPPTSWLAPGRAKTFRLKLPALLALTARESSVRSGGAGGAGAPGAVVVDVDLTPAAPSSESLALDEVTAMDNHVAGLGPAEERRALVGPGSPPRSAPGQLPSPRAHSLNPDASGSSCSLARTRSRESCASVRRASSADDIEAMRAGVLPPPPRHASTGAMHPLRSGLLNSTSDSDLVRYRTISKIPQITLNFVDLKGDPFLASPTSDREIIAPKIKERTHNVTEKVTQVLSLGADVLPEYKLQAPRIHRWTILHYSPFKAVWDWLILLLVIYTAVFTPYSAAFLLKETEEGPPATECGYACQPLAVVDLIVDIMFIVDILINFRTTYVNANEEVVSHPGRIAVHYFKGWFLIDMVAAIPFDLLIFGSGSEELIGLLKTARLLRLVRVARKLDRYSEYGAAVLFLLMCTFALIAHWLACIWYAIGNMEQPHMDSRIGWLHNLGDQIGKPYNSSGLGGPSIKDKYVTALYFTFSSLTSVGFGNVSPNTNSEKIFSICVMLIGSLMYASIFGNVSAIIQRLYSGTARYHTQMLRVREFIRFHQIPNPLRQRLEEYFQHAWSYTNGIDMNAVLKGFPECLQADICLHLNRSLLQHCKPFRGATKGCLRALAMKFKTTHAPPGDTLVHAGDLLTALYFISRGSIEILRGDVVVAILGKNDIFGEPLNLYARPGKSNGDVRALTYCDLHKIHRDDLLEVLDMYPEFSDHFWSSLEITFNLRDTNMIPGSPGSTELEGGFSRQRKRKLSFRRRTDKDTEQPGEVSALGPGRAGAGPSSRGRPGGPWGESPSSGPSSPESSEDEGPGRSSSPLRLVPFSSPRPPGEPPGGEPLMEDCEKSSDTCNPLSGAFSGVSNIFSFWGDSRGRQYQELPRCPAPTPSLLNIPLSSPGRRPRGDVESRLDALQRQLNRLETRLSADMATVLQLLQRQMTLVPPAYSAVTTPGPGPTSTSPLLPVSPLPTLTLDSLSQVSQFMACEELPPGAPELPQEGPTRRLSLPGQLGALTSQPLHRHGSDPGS
Description: Electrophysiological recordings were made from a Chinese Hamster Ovary cell line stably expressing the full-length hERG potassium channel. Single cell ionic currents were measured in whole-cell patch clamp configuration at room temperature (21-23° C.) using the Qpatch HTX platform (Sophion). Intracellular solution contained (mM): 120 KF, 20 KCl, 10 EGTA, 10 HEPES and was buffered to pH 7.3. […] Cells were clamped at a holding potential of −80 mV. Cells were stepped to +20 mV for 2 s then −40 mV for 3 s before returning to the holding potential. […] Compounds were then incubated for 2 minutes prior to a second measurement of ion channel current using an identical pulse train.

[12] = test system: Escherichia coli; assay: MIC90 determination, clinical strains (CLSI); details: for MIC90: Escherichia coli, N=38, read-out: MIC 90 Escherichia coli
[13] = test system: Acinetobacter baumannii ATCC 19606; assay: Minimum Inhibitory Concentration (MIC) in LB media; details: Acinetobacter baumannii, ATCC19606
Description: (§1) The compounds of Formula Ia and Formula Ib are of interest due to their potent antibacterial effects. The ability of the compounds disclosed herein to achieve an antibacterial effect may be evaluated with regard to their ability to inhibit the growth of bacterial species like Escherichia coli ATCC 25922, Staphylococcus aureus ATCC 29213, Klebsiella pneumoniae ATCC 13883, Acinetobacter baumannii ATCC 19606, Pseudomonas aeruginosa ATCC 27853 and Enterococcus faecalis ATCC 29212 using an assay based on the following Minimum Inhibitory Concentration (MIC) protocol:
(§2) The test bacteria were grown in Luria Bertani Broth (HIMEDIA M1245), 25 g of the powder was dissolved in 1000 ml distilled water and sterilized by autoclaving at 15 lbs pressure (121° C.) for 20 minutes. The medium sterility was checked by incubating at 37° C. for a period of 48 h. Bacterial cultures that were stored as glycerol stocks at −80° C. were subcultured on LB agar plates to obtain isolated colonies. A single colony of each strain was cultured in LB broth. The cultures were incubated at 37° C., 200 rpm till they reached an optical density (OD at 600 nm) of 0.8 to 1. This log phase culture was diluted in LB broth to a cell number of 5-8*10^5 CFU/mL to be used as inoculum for MIC experiments. Test compounds were dissolved in dimethyl sulfoxide (DMSO) to a stock concentration of 4 mg/ml. A two-fold dilution series of this DMSO stock was prepared in a 96 well V bottom microtitre plate from rows A to H. A 3 μL volume of these dilutions are transferred to a 96-well flat bottom microtitre assay plate. Controls to monitor the effects of DMSO and media sterility were included. Each well was inoculated with 150 μL of the above diluted culture. The plates were incubated at 37° C. overnight in a humidified incubator. The following morning, the plates were read using a Spectrophotometer at 600 nm wavelength. […] The antibacterial activity (MIC) determined against representative gram-positive (S. aureus, E. faecalis) and gram-negative (E. coli, Aeruginosa, K. pneumoniae, and A. baumannii) pathogen are reported Table 1.

[14] = test system: Klebsiella pneumoniae ATCC 13883; assay: Minimum Inhibitory Concentration (MIC) in LB media; details: Klebsiella pneumoniae, ATCC13883, read-out: Minimum Inhibitory Concentration K. pneumoniae ATCC 13883
Description: as §1, §2

[15] = test system: Enterococcus faecalis ATCC 29212; assay: Minimum Inhibitory Concentration (MIC) in LB media; details: Enterococcus faecalis, ATCC29212, read-out: Minimum Inhibitory Concentration E. faecalis ATCC 29212
Description: as §1, §2

[16] = test system: Staphylococcus aureus ATCC 29213; assay: Minimum Inhibitory Concentration (MIC) in LB media; details: Staphylococcus aureus, ATCC29213, read-out: Minimum Inhibitory Concentration S. aureus ATCC 29213
Description: as §1, §2

[17] = test system: Escherichia coli ATCC 25922; assay: Minimum Inhibitory Concentration (MIC) in LB media; details: Escherichia coli, ATCC25922, read-out: Minimum Inhibitory Concentration E. coli ATCC 25922
Description: as §1, §2

[18] = test system: Pseudomonas aeruginosa ATCC 27853; assay: Minimum Inhibitory Concentration (MIC) in LB media; details: Pseudomonas aeruginosa, ATCC27853
Description: as §1, §2

[19] = test system: Citrobacter freundii; assay: MIC90 determination, clinical strains (CLSI); details: for MIC90: Citrobacter freundii, N=19, read-out: MIC 90 Citrobacter freundii

SMILES | MIC90 [1] [µg/mL] | MIC90 [2] [µg/mL] | MIC90 [3] [µg/mL] | MIC90 [4] [µg/mL] | MIC90 [5] [µg/mL] | MIC90 [6] [µg/mL] | MIC90 [7] [µg/mL] | MIC90 [8] [µg/mL] | MIC90 [9] [µg/mL] | % (in-vitro micronucleus assay) [10] [%] | In vitro micronucleus forming concentration [10] [µM] | IC50 [11] [µM] | MIC90 [12] [µg/mL] | MIC [13] [µg/mL] | MIC [14] [µg/mL] | MIC [15] [µg/mL] | MIC [16] [µg/mL] | MIC [17] [µg/mL] | MIC [18] [µg/mL] | MIC90 [19] [µg/mL] | further results
Cn1c(=O)cnc2ccc(OCCNC[C@H]3CN(c4cnc5c(n4)NC(=O)CS5)C(=O)O3)nc21 [Compound 1, (S)-5-(((2-((4-Methyl-3-oxo-3,4-dihydropyrido[2,3-b]pyrazin-6-yl)oxy)ethyl)amino)methyl)-3-(3-oxo-3,4-dihydro-2H-pyrazino[2,3-b][1,4]thiazin-6-yl)oxazolidin-2-one, reference compound] | 2 (≈ 4.13 µM) | 4 (≈ 8.26 µM) | 4 (≈ 8.26 µM) | 2 (≈ 4.13 µM) | 0.5 (≈ 1.03 µM) | 4 (≈ 8.26 µM) | 2 (≈ 4.13 µM) | 1 (≈ 2.06 µM) | 8 (≈ 16.5 µM) | 1.58 | 32 | 58 | 0.5 (≈ 1.03 µM) | 0.03 (≈ 0.0619 µM) | 0.03 (≈ 0.0619 µM) | 0.1 (≈ 0.206 µM) | < 0.03 | 0.03 (≈ 0.0619 µM) | 0.5 (≈ 1.03 µM) | 2 (≈ 4.13 µM) | 
Cn1c(=O)ccc2ncc(OCCNC[C@H]3CN(c4cnc5c(n4)NC(=O)CS5)C(=O)O3)nc21 [Compound 2, (S)-5-(((2-((5-Methyl-6-oxo-5,6-dihydropyrido[2,3-b]pyrazin-3-yl)oxy)ethyl)amino)methyl)-3-(3-oxo-3,4-dihydro-2H-pyrazino[2,3-b][1,4]thiazin-6-yl)oxazolidin-2-one, reference compound] | 2 (≈ 4.13 µM) | 4 (≈ 8.26 µM) | 4 (≈ 8.26 µM) | 4 (≈ 8.26 µM) | 2 (≈ 4.13 µM) | 8 (≈ 16.5 µM) | 4 (≈ 8.26 µM) | 1 (≈ 2.06 µM) | 16 (≈ 33 µM) | 1.67 | 8 | > 150 | 1 (≈ 2.06 µM) | 0.03 (≈ 0.0619 µM) | 0.03 (≈ 0.0619 µM) | 0.03 (≈ 0.0619 µM) | < 0.03 | 0.03 (≈ 0.0619 µM) | 0.5 (≈ 1.03 µM) | 1 (≈ 2.06 µM) | 
Cn1c(=O)cnc2ccc(OCCNC[C@@H]3CN(c4cnc5c(n4)NC(=O)CS5)C(=O)O3)nc21 [Compound 3, (R)-5-(((2-((4-methyl-3-oxo-3,4-dihydropyrido[2,3-b]pyrazin-6-yl)oxy)ethyl)amino)methyl)-3-(3-oxo-3,4-dihydro-2H-pyrazino[2,3-b][1,4]thiazin-6-yl)oxazolidin-2-one] | 4 (≈ 8.26 µM) | 4 (≈ 8.26 µM) | 4 (≈ 8.26 µM) | 2 (≈ 4.13 µM) | 0.5 (≈ 1.03 µM) | 8 (≈ 16.5 µM) | 4 (≈ 8.26 µM) | 1 (≈ 2.06 µM) | 4 (≈ 8.26 µM) | 0.81 | >500 |  | 0.5 (≈ 1.03 µM) | 0.03 (≈ 0.0619 µM) | 0.03 (≈ 0.0619 µM) | 0.03 (≈ 0.0619 µM) | < 0.015 | 0.03 (≈ 0.0619 µM) | 0.5 (≈ 1.03 µM) | 1 (≈ 2.06 µM) | genotoxicity risk (in words) [10]: completely devoid of any genotoxicity risk; micronucleus formation (in words) [10]: did not induce micronucleus formation
Cn1c(=O)ccc2ncc(OCCNC[C@@H]3CN(c4cnc5c(n4)NC(=O)CS5)C(=O)O3)nc21 [Compound 4, (R)-5-(((2-((5-methyl-6-oxo-5,6-dihydropyrido[2,3-b]pyrazin-3-yl)oxy)ethyl)amino)methyl)-3-(3-oxo-3,4-dihydro-2H-pyrazino[2,3-b][1,4]thiazin-6-yl)oxazolidin-2-one] | 4 (≈ 8.26 µM) | 8 (≈ 16.5 µM) | 4 (≈ 8.26 µM) | 2 (≈ 4.13 µM) | 1 (≈ 2.06 µM) | 8 (≈ 16.5 µM) | 4 (≈ 8.26 µM) | 2 (≈ 4.13 µM) | 16 (≈ 33 µM) | 0.76 |  | > 300 | 0.5 (≈ 1.03 µM) | 0.03 (≈ 0.0619 µM) | 0.06 (≈ 0.124 µM) | 0.06 (≈ 0.124 µM) | 0.015 (≈ 0.031 µM) | 0.06 (≈ 0.124 µM) | 0.5 (≈ 1.03 µM) | 2 (≈ 4.13 µM) | 
CN1C(=O)CNc2cc(F)c(OCCNC[C@H]3CN(c4cnc5c(n4)NC(=O)CS5)C(=O)O3)nc21 [Compound 8, (S)-5-(((2-((7-fluoro-4-methyl-3-oxo-1,2,3,4-tetrahydropyrido [2,3-b]pyrazin-6-yl)oxy)ethyl)amino)methyl)-3-(3-oxo-3,4-dihydro-2H-pyrazino[2,3-b][1,4]thiazin-6-yl)oxazolidin-2-one] |  |  |  |  |  |  |  |  |  | 0.5 | >1000 | > 300 |  | 0.06 (≈ 0.119 µM) | 0.06 (≈ 0.119 µM) | 0.125 (≈ 0.248 µM) | < 0.015 | 0.03 (≈ 0.0595 µM) | 1 (≈ 1.98 µM) |  | genotoxicity risk (in words) [10]: completely devoid of any genotoxicity risk
C[C@@H](O)[C@H]1C(=O)N2C(C(=O)O)=C(S[C@@H]3CN[C@H](C(=O)N(C)C)C3)[C@H](C)[C@H]12 [Meropenem, reference compound] |  |  |  |  |  |  |  |  |  |  |  |  |  |  |  |  |  |  |  |  | MIC 90 Klebsiella aerogenes, K. oxytoca ([1]; N=17): 16 µg/mL (≈ 41.7 µM); MIC 90 Klebsiella pneumoniae ([2]; N=86): 16 µg/mL (≈ 41.7 µM); MIC 90 Proteus mirabilis ([3]; N=12): 1 µg/mL (≈ 2.61 µM); MIC 90 Providencia rettgeri, P. stuartii ([4]; N=12): 4 µg/mL (≈ 10.4 µM); MIC 90 Acinetobacter baumannii ([5]; N=38): >8 µg/mL; MIC 90 Enterobacter cloacae ([6]; N=26): 16 µg/mL (≈ 41.7 µM); MIC 90 Pseudomonas aeruginosa ([7]; N=34): 16 µg/mL (≈ 41.7 µM); MIC 90 Morganella morganii ([8]; N=11): 0.12 µg/mL (≈ 0.313 µM); MIC 90 Serratia marcescens ([9]; N=15): 16 µg/mL (≈ 41.7 µM); MIC 90 Escherichia coli ([12]; N=38): 2 µg/mL (≈ 5.22 µM); MIC 90 Citrobacter freundii ([19]; N=19): 8 µg/mL (≈ 20.9 µM)
